Experiment [1] has as its system SARS-CoV-2 pseudovirus. In kind it is cell-based.
For experiment [2], the system named is SARS-CoV pseudovirus. In kind it is cell-based.

As to ACE2-Fc, in experiment [1], the “inhibition of SARS-CoV-2 pseudovirus entry” value was “inhibited” and the “percent infection of SARS-CoV-2 pseudovirus particles” value is given as “reduced percent infection”. In addition, in experiment [2], the “inhibition of SARS-CoV pseudovirus entry” value is reported as “inhibited”.

As to heparin [reference compound], the “efficiency of inhibition of SARS-CoV-2 compared with SARS-CoV and MERS CoV” value in experiment [1] is “more efficiently than it does for SARS-CoV and MERS CoV”.

For the origin of these results see patent US11518788B2, “Methods and compositions for treating and preventing viral infection” (priority 2020, dated 2022).
